The text below walks through data of patent US20070043062A1, “Isoxazoles as peptide deformylase inhibitors” (Arpida A/S, priority 2003, published 2007).

The target in data set [1] is T1, S. aureus, PDF enzyme (Staphylococcus aureus, UniProt P68826).
T1 sequence (P68826 1-183): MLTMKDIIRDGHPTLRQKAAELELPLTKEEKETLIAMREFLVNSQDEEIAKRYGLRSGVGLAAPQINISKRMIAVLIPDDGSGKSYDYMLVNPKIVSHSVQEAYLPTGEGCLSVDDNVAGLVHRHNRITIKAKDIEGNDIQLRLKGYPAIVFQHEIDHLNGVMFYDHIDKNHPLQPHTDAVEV
Nature of the data set: Bacterial peptide deformylase (PDF) assay, colorimetric cell free, f-Met-Ala substrate, TNBS detection at 420 nm. The class given is biochemical. The conditions noted are these: means of three experiments; 30 minutes at room temperature, pH 7.2; read-out: PDF enzyme inhibitory activity IC50, S. aureus, PDF enzyme. From the text:
To find inhibitors of Peptide Deformylase (PDF), a colorimetric cell free assay for measuring the enzymatic activity of PDF has been adapted to the microtiter plate format (96 wells). The assay comprises three components, purified PDF, f-Met-Ala as substrate and TNBS as the detecting agent of primary amino groups. The resulting TNP-NH-Met-Ala sulfite complex can be detected at 420 nm. PDF enzymes, containing Fe^2+ as the native metal, are purified and are stabilized by the addition of tris(2-carboxyethyl)phosphine (TCEP).
(§1) The IC50 value of a compound of the invention as a bacterial PDF inhibitor was determined using the following assay.
(§2) Assay buffer: 0.1M MOPS pH was adjusted to 7.2 with NaOH, containing 0.25 M NaCl, 100 μg/mL catalase and 1 mg/mL BSA.
S. aureus (15 mg/ml) 10 μl+990 μl Assay buffer, 0.3 μl per ml enzyme mix.
(§3) Substrate mix: 10 mM f-Met-Ala was made up from 200 mM f-Met-Ala in methanol with assay buffer.
(§4) TNBS solution: Freshly dilute 1 M TNBS stock solution diluted 1:10 with water.
(§5) Buffer C, 0.5 M borate buffer adjusted to pH 9.5 with NaOH.
(§6) Buffer D: 0.2 ml of freshly prepared 0.5 M Na2SO3 was mixed with 9.8 mL of 0.5M NaH2PO4.
(§7) Inhibitor solution: 2 mM Sodium 4-(hydroxymercurio) benzoate in assay buffer.
(§8) Compound mix: Compound of formula I dissolved in DMSO in a 10 mg/mL stock solution. Further dilutions were made in DMSO in the concentration range between 0.05 to 100 mM.
The assay was performed in a 96 Microtiter plate containing test compound. To each well containing test compound mix was added 75 microliter of enzyme mix followed by the addition of 25 microliter of substrate mix. The resulting mix was incubated for 30 minutes at room temperature with shaking. TNBS solution (50 microliter/well) was added and the resulting mixture was incubated for 15 minutes under shaking. Buffer C was then added (20 microliter/well). After incubating at room temperature for 15 minutes under shaking, buffer D was added (50 microliter/well). The optical […] was then measured at 420 nm, thereby determining the IC50 value.

In data set [2] the target is E. coli, PDF enzyme (Escherichia coli, UniProt P0A6K3). The data set is described as above. The class given is biochemical. The method, then:
The assay comprises three components, purified PDF, f-Met-Ala as substrate and TNBS as the detecting agent of primary amino groups. The resulting TNP-NH-Met-Ala sulfite complex can be detected at 420 nm. PDF enzymes, containing Fe^2+ as the native metal, are purified and are stabilized by the addition of tris(2-carboxyethyl)phosphine (TCEP).
as §1, §2
E. coli enzyme (2.5 mg/ml) 10 μl+290 μl Assay buffer, 1 μl per ml enzyme mix.
as §3, §4, §5, §6, §7, §8
The assay was performed in a 96 Microtiter plate containing test compound. […] The optical diffraction was then measured at 420 nm, thereby determining the IC50 value.

E. coli, PDF enzyme, sequence (P0A6K3 whole entry): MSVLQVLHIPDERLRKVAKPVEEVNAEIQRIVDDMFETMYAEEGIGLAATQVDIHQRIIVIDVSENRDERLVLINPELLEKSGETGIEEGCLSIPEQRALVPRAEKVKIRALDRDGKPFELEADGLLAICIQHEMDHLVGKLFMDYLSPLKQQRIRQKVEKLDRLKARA

By melting point is commonly meant the temperature, or range, at which the solid turns liquid. As usually defined, the IC50 is the midpoint of a concentration-inhibition curve. For the compound `O=C(NO)c1cc(CSc2ccc(F)cc2)on1` [Example 12, 5-(4-Fluoro-phenylsulfanylmethyl)-isoxazole-3-carboxylic acid hydroxyamide], the melting point is 98 to 99 °C (dec.). Moreover, the IC50 in data set [1] is 1.5 µM.

As for `O=C(NO)c1cc(CSc2ccccc2Cl)on1` [Example 4, 5-(2-Chloro-phenylsulfanylmethyl)-isoxazole-3-carboxylic acid hydroxyamide], the melting point is 141 to 143 °C (dec.). Also, in data set [1], the IC50 was 3.8 µM. As to `CC(C)c1ccccc1S(=O)(=O)Cc1cc(C(=O)NO)no1` [Example 36, 5-(2-Isopropyl-benzenesulfonylmethyl)-isoxazole-3-carboxylic acid hydroxyamide], the melting point was 170 °C (dec.). For the same compound, the IC50 in data set [1] came out at 3.4 µM. The like results for `O=C(NO)c1cc(CSCc2cc3ccccc3s2)on1` [Example 16, 5-(Benzothiophen-2-ylmethylsulfanylmethyl)-isoxazole-3-carboxylic acid hydroxyamide] were, in that order, 143 to 145 °C (dec.) and 12.7 µM.

For the compound `O=C(NO)c1cc(CSc2ccccc2OC(F)(F)F)on1`, the melting point is 108 to 109 °C (dec.). Turning to `O=C(NO)c1cc(CSc2ccccc2Br)on1` [Example 6, 5-(2-Bromo-phenylsulfanylmethyl)-isoxazole-3-carboxylic acid hydroxyamide], the melting point is 135 to 136 °C (dec.). Further, the IC50 in data set [1] worked out at 4.9 µM.

Take `O=C(NO)c1cc(CSc2ccc(Cl)c(Cl)c2)on1` [Example 5, 5-(3,4-Dichloro-phenylsulfanylmethyl)-isoxazole-3-carboxylic acid hydroxyamide]: the melting point is 99 to 102 °C (dec.). For the same compound, in data set [1], the IC50 was determined as 2 µM. On to `CC(c1cc(C(=O)NO)no1)S(=O)(=O)c1ccc(Cl)cc1` (stereo not shown), for which the melting point is 162 °C (dec.). The compound `O=C(NO)c1cc(CSCc2cccc(C(F)(F)F)c2)on1` [Example 17, 5-(3-Trifluoromethyl-benzylsulfanylmethyl)-isoxazole-3-carboxylic acid hydroxyamide] showed a melting point of 109 to 110 °C. In addition, the IC50 in data set [1] turned out to be 2.2 µM. In the case of `O=C(NO)c1cc(CSc2nccc(-c3cccs3)n2)on1`, the melting point was 165 to 168 °C (dec.).

`COc1cccc(SCc2cc(C(=O)NO)no2)c1` [Example 11, 5-(3-Methoxy-phenylsulfanylmethyl)-isoxazole-3-carboxylic acid hydroxyamide]: the melting point came out at 116 °C. The IC50 in data set [1] was 2.2 µM. Take `Cc1ccc([S+]([O-])Cc2cc(C(=O)NO)no2)cc1` (stereo not shown) [Example 38, 5-(4-Toluenesulfinylmethyl)-isoxazole-3-carboxylic acid hydroxyamide]: in data set [1], the IC50 was 0.9 µM. Regarding `O=C(NO)c1cc(CS(=O)(=O)c2cccc(Cl)c2)on1` [Example 35, 5-(3-Chloro-benzenesulfonylmethyl)-isoxazole-3-carboxylic acid hydroxyamide], the IC50 in data set [1] came to 1.7 µM.

For `O=C(NO)c1cc(CS(=O)(=O)c2ccc(Cl)cc2)on1` [Example 34, 5-(4-Chloro-benzenesulfonylmethyl)-isoxazole-3-carboxylic acid hydroxyamide], the IC50 in data set [1] turned out to be 0.8 µM. `O=C(NO)c1cc(CSc2ccc(C(F)(F)F)cc2)on1` [Example 13, 5-(4-Trifluoromethyl-phenylsulfanylmethyl)-isoxazole-3-carboxylic acid hydroxyamide] displayed a melting point of 129 °C. For the same compound, in data set [1], the IC50 came out at 8.7 µM. The like results for `CC(C)c1ccccc1SCc1cc(C(=O)NO)no1` [Example 8, 5-(2-Isopropyl-phenylsulfanylmethyl)-isoxazole-3-carboxylic acid hydroxyamide] were, in that order, 121 to 123 °C (dec.) and 7.6 µM. As for `O=C(NO)c1cc(CSc2cccc(Cl)c2)on1` [Example 3, 5-(3-Chloro-phenylsulfanylmethyl)-isoxazole-3-carboxylic acid hydroxyamide], the melting point is 105 to 107 °C (dec.). Further, the IC50 in data set [1] is 2.3 µM. Take `Cc1ccc(S(=O)(=O)Cc2cc(C(=O)NO)no2)cc1` [Example 33, 5-(4-Toluenesulfonylmethyl)-isoxazole-3-carboxylic acid hydroxyamide]: the IC50 turned out to be 1.4 µM in data set [1] and 11.5 µM in data set [2]. Regarding `O=C(NO)c1cc(CSc2ccccc2C(F)(F)F)on1` [Example 14, 5-(2-Trifluoromethyl-phenylsulfanylmethyl)-isoxazole-3-carboxylic acid hydroxyamide], the melting point was 140 to 144 °C (dec.). Besides, in data set [1], the IC50 came to 9.3 µM. Consider `O=C(NO)c1cc(CSc2ccc(Cl)cc2)on1` [Example 2, 5-(4-Chloro-phenylsulfanylmethyl)-isoxazole-3-carboxylic acid hydroxyamide], for which the IC50 in data set [1] was 1.3 µM. In turn, `O=C(NO)c1cc(CSc2cccc(Br)c2)on1` [Example 7, 5-(3-Bromo-phenylsulfanylmethyl)-isoxazole-3-carboxylic acid hydroxyamide] displayed a melting point of 104 to 105 °C. Moreover, the IC50 in data set [1] came to 2 µM. For the compound `Cc1cc(C)c(SCc2cc(C(=O)NO)no2)c(C)c1` [Example 9, 5-(2,4,6-Trimethyl-phenylsulfanylmethyl)-isoxazole-3-carboxylic acid hydroxyamide], the melting point is 133 to 135 °C (dec.). Moreover, the IC50 in data set [1] was 37.7 µM. The like results for `Cc1ccc(SCc2cc(C(=O)NO)no2)cc1` [Example 1, 5-(4-Toluenesulfanylmethyl)-isoxazole-3-carboxylic acid hydroxyamide] were, in that order, 94 to 96 °C (dec.) and 4 µM.

Consider `COc1cccc(S(=O)(=O)Cc2cc(C(=O)NO)no2)c1` [Example 37, 5-(3-Methoxy-benzenesulfonylmethyl)-isoxazole-3-carboxylic acid hydroxyamide], for which, in data set [1], the IC50 turned out to be 6.5 µM.
